Experimental data from article PMC9926234, “Iterative computational design and crystallographic screening identifies potent inhibitors targeting the Nsp3 macrodomain of SARS-CoV-2” (Proceedings of the National Academy of Sciences of the …, 2023).
Like-named read-outs stand apart in the source and are kept apart here.

What was measured:
SARS-CoV-2 NSP3 Mac1 [1] = molecular target: T1, SARS-CoV-2 NSP3 Mac1 (Severe acute respiratory syndrome coronavirus 2, UniProt P0DTD1); assay type: binding; conditions: for Refined occupancy: ligand occupancy after refinement (phenix.refine)
SARS-CoV-2 NSP3 Mac1 [2] = molecular target: T1, SARS-CoV-2 NSP3 Mac1; assay type: binding; set-up: contains a conserved macrodomain enzyme (Mac1); conditions: for Spearman est (compound concentration vs apparent Tm): DSF dose responsiveness, 1 µM nsp3 mac1, adj p given
Outline: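 Differential scanning fluorimetry using 5 µM Fluorescent Yellow dye in place of SYPRO Orange. Compounds run in triplicate at seven two-fold dilutions from 1,000 or 100 μM, with ΔTma taken against a DMSO control in the same plate region. Dose-response significance assessed by Spearman's coefficient between concentration and ΔTma.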

[3] = PanDDA event map, 1 minus background density correction, crystal soaking of Mac1
[4] = true hit = binding in crystallographic soaking or the HTRF-based binding assay
[5] = PanDDA event map, 1-BDC of the hit dataset, crystal soak, compound concentration 100 mM
[6] = overall hit flag: binding in crystallographic soaking or the HTRF-based binding assay
[7] = maximal thermal upshift vs DMSO control

O=C(O)C[C@@H]1CCCN(c2ncnc3nc[nH]c23)C1 [REAL250002852032]
1-BDC (SARS-CoV-2 NSP3 Mac1 [1]; [3]): 0.19
Refined occupancy (SARS-CoV-2 NSP3 Mac1 [1]; crystal soaking of Mac1): 38
HIT* (SARS-CoV-2 NSP3 Mac1 [1]; [4]): Y
Spearman est (compound concentration vs apparent Tm) (SARS-CoV-2 NSP3 Mac1 [2]): 0.29
DSF max dTma (SARS-CoV-2 NSP3 Mac1 [2]; maximal thermal upshift): 0.58 ˚C

Nc1ncnc(N2CCCC(CCC(=O)O)C2)c1Cl (centres unmarked) [REAL250003296134]
1-BDC (SARS-CoV-2 NSP3 Mac1 [1]; PanDDA 1-BDC value of the event, crystal soak, compound concentration 100 mM, per dataset): 0.09
1-BDC (SARS-CoV-2 NSP3 Mac1 [1]; [3]): 0.09
PanDDA hit? (SARS-CoV-2 NSP3 Mac1 [1]; crystal soak, compound concentration 100 mM, per dataset): TRUE
Modeled? (SARS-CoV-2 NSP3 Mac1 [1]; ligand modeled in the crystal structure, crystal soak, compound concentration 100 mM, per dataset): TRUE
Refined occupancy (SARS-CoV-2 NSP3 Mac1 [1]; crystal soaking of Mac1): 18
HIT* (SARS-CoV-2 NSP3 Mac1 [1]; [4]): Y
Spearman est (compound concentration vs apparent Tm) (SARS-CoV-2 NSP3 Mac1 [2]): 0.65
DSF max dTma (SARS-CoV-2 NSP3 Mac1 [2]; maximal thermal upshift): 0.34 ˚C

CN(CC(=O)O)C(=O)c1ccc2n[nH]c(=O)n2c1 [REAL250003774401]
1-BDC (SARS-CoV-2 NSP3 Mac1 [1]; [3]): 0.16
Refined occupancy (SARS-CoV-2 NSP3 Mac1 [1]; crystal soaking of Mac1): 32
HIT* (SARS-CoV-2 NSP3 Mac1 [1]; [4]): Y
Spearman est (compound concentration vs apparent Tm) (SARS-CoV-2 NSP3 Mac1 [2]): −0.3
DSF max dTma (SARS-CoV-2 NSP3 Mac1 [2]; maximal thermal upshift): 0 ˚C

CCc1c[nH]c2ncc(-c3c(C(=O)O)c(C)nn3C)cc12 [REAL250003958539]
1-BDC (SARS-CoV-2 NSP3 Mac1 [1]; [5]): 0.2
1-BDC (SARS-CoV-2 NSP3 Mac1 [1]; [3]): 0.14
Refined occupancy (SARS-CoV-2 NSP3 Mac1 [1]; crystal soaking of Mac1): 28
HIT* (SARS-CoV-2 NSP3 Mac1 [1]; [4]): Y
Spearman est (compound concentration vs apparent Tm) (SARS-CoV-2 NSP3 Mac1 [2]): 0.15
DSF max dTma (SARS-CoV-2 NSP3 Mac1 [2]; maximal thermal upshift): 0.35 ˚C

CC1CC(C(=O)O)N1C(=O)c1cc(O)nc2ccc(F)cc12.O=C(O)C(F)(F)F (centres unmarked) [REAL300007260658]
1-BDC (SARS-CoV-2 NSP3 Mac1 [1]; [5]): 0.18
1-BDC (SARS-CoV-2 NSP3 Mac1 [1]; [3]): 0.11
Refined occupancy (SARS-CoV-2 NSP3 Mac1 [1]; crystal soaking of Mac1): 22
HIT* (SARS-CoV-2 NSP3 Mac1 [1]; [4]): Y
Spearman est (compound concentration vs apparent Tm) (SARS-CoV-2 NSP3 Mac1 [2]): −0.11
DSF max dTma (SARS-CoV-2 NSP3 Mac1 [2]; maximal thermal upshift): 0.37 ˚C

CC1C(C(=O)O)CCCN1S(=O)(=O)c1c[nH]c2ncc(Cl)cc12 (centres unmarked) [REAL300016493575]
1-BDC (PanDDA) (SARS-CoV-2 NSP3 Mac1 [1]; [3]): 0.09
Modeled? (SARS-CoV-2 NSP3 Mac1 [1]; ligand modeled from this dataset, compound concentration 100 mM): TRUE
Refined occupancy (SARS-CoV-2 NSP3 Mac1 [1]; crystal soaking of Mac1): 18
HIT* (SARS-CoV-2 NSP3 Mac1 [1]; [4]): Y
Spearman est (compound concentration vs apparent Tm) (SARS-CoV-2 NSP3 Mac1 [2]): −0.16
DSF max dTma (SARS-CoV-2 NSP3 Mac1 [2]; maximal thermal upshift): 0.15 ˚C

O=C(Cc1ccc(-n2cccn2)cc1)OCC1CCCNC1=O (centres unmarked) [Z5505]
HIT* (SARS-CoV-2 NSP3 Mac1 [1]; [6]): Y
DSF max dTma (SARS-CoV-2 NSP3 Mac1 [2]; [7]): 0.16 °C

c1csc(CC2CCN(c3ncnc4[nH]ccc34)C2)n1 (centres unmarked) [Z6891]
HIT* (SARS-CoV-2 NSP3 Mac1 [1]; [6]): Y
DSF max dTma (SARS-CoV-2 NSP3 Mac1 [2]; [7]): 0.15 °C

Cc1oc(=O)oc1CSc1ncnc2[nH]cnc12 [Z7450]
HIT* (SARS-CoV-2 NSP3 Mac1 [1]; [6]): Y
DSF max dTma (SARS-CoV-2 NSP3 Mac1 [2]; [7]): 0.49 °C

OCc1cn(C2CCCN(c3ncnc4[nH]ccc34)C2)nn1 (centres unmarked) [Z7864]
HIT* (SARS-CoV-2 NSP3 Mac1 [1]; [6]): Y
DSF max dTma (SARS-CoV-2 NSP3 Mac1 [2]; [7]): 0.32 °C

Cc1nc(Cn2cnc3c(N)nc(N)nc32)cs1 [Z8569]
HIT* (SARS-CoV-2 NSP3 Mac1 [1]; [6]): Y
DSF max dTma (SARS-CoV-2 NSP3 Mac1 [2]; [7]): 0.53 °C

Nc1nc(N)c2ncn(Cc3csc(Cl)n3)c2n1 [Z8572]
HIT* (SARS-CoV-2 NSP3 Mac1 [1]; [6]): Y
DSF max dTma (SARS-CoV-2 NSP3 Mac1 [2]; [7]): 1.1 °C

Nc1nc(N)c2ncn(Cc3csc(C4CC4)n3)c2n1 [Z8585]
HIT* (SARS-CoV-2 NSP3 Mac1 [1]; [6]): Y
DSF max dTma (SARS-CoV-2 NSP3 Mac1 [2]; [7]): 1.3 °C
